Source: patent US9061038B2, “Doxorubicin adjuvants to reduce toxicity and methods for using the same” (Tosk, Incorporated, priority 2008, dated 2015)
Entries after “also recorded” stand apart in the source; their conditions may differ. Counter-ions that a name gives are not always drawn.

What was measured:
[1] = cited from earlier work
CD-1 mice [2] = assay: Mouse study: protection against doxorubicin-induced cardiac damage, plasma cardiac troponin I (cTnI) ELISA; type: in vivo; conditions: 25 mg/kg doxorubicin ip, 1.0 or 3.0 mg/kg TK-115339 ip 3 hours before and after doxorubicin, single ip on days 2-4, plasma on day 5 (96 hours)
From the text: To this end, a representative nitrone test article (TK-115339) was examined for its ability to mitigate one aspect of doxorubicin-induced toxicity, cardiac damage, in CD-1 mice as determined by concentration of cardiac troponin I (cTnI) in animal plasma (Li et al., Circulation, 113:535-43 (2006) and Hou et al., J Lab Clin Med., 146: 299-303 (2005). Doxorubicin was purchased from Xinchem Corporation (China). TK-115339 was synthesized at the University of California, Santa Cruz. […]
On days 2, 3 and 4, the mice received a single ip injection of either 1 or 3 mg/kg of TK-115339. […] The plasma samples were analyzed for cTnI using a commercial ELISA test according to the manufacture's recommendations (Life Diagnostics, Inc., Cat. No. 2010-1-HSP).
(§1) Data was analyzed using SPSS software (SPSS Inc., Chicago, Ill.). […]
Representative of the data shown in FIG. 1, mice (10 animals/treatment group) were dosed ip on Day 1 with vehicle (pH 7.4 buffered saline), 25 mg/kg doxorubicin ip or 25 mg/kg doxorubicin ip plus 1.0 or 3.0 mg/kg TK-115339 3 hours before, and after, the doxorubicin treatment. […] The plasma samples were analyzed for cTnI using a commercial ELISA test for troponin I. Boxplots of troponin findings from the study are provided in FIG. 1.

[3] = test system: CCRF-CEM human cancer cells; assay: Cell culture study: interference with doxorubicin activity, alamarBlue cell viability; type: cell-based; conditions: doxorubicin 0.01, 0.1, 1.0 μM with TK-115339 0.01, 0.1, 1.0 μM, 72 hour incubation
Description: The aim of this study was to examine whether or not a representative nitrone test article, TK-115339, interfered with the desired activity of doxorubicin in vitro.
The tumor cell line for the cell culture study was CCRF-CEM (Human T-ALL, CCL-119) from ATCC, and cells were cultured in accordance with the product information sheets replacing 75 cm^2 culture flasks with 56.7 cm^2 Petri dishes and adding 1% penicillin-streptomycin solution and 1% GlutaMAX™ to the culture medium. The compound, TK-115339, was dissolved in DMSO then diluted to obtain initial working solutions of 1, 10 and 100 μM. […]
Cells were thawed according to ATCC protocol and plated in 10 mL of sterile filtered growth medium. […] Doxorubicin was evaluated at concentrations of 0.01, 0.1 and 1.0 μM alone or in combination with TK-115339 at concentrations of 0.01, 0.1 and 1.0 μM. […]
At the end of incubation, cell viability was determined by optical absorbance of alamarBlue® at λ=570 and 600 nm in accordance using a standard protocol provided by the vendor, Biosource. Data was analyzed using SPSS 14.0 software (SPSS Inc., Chicago, Ill.). Statistical significance of the differences between experimental groups was calculated by using one-way ANOVA followed by a Bonferroni post-hoc analysis.
Cells were prepared and tested as described above. […] For each condition, 12 replicates were analyzed. […]

CD-1 mice [4] = assay: Mouse dose response study: protection against doxorubicin-associated cardiotoxicity, plasma cTnI ELISA; type: in vivo; conditions: 25 mg/kg doxorubicin ip, 0.0001, 0.001, 0.01, 0.1 or 1.0 mg/kg TK-115339 ip 3 hours before and after doxorubicin, plasma on day 5
Description: The aim of this study was to establish the dose response for the protection afforded by TK-115339 against doxorubicin-associated cardiotoxicity.
Eight to ten-week-old male CD-1 male mice (Charles River, Hollister, Calif.) weighing 30-35 g were housed in a climate-controlled environment, the light was controlled (light:dark, 12:12), and the animals were given food and water ad libitum. The animals (12 animals/treatment group) were dosed ip (200 μl volume) on day 1 with 25 mg/kg doxorubicin or 25 mg/kg doxorubicin plus 0.0001, 0.001, 0.01, 0.1 or 1.0 mg/kg TK-115339 3 hours before, and after, the doxorubicin treatment. […]
On days 2 and 3 the mice received a single ip injection of either saline (doxorubicin alone group) or […] (dose ranging experimental groups). […] The plasma samples were analyzed for cTnI using a commercial ELISA test according to the manufacture's recommendations (Life Diagnostics, Inc., Cat. No. 2010-1-HSP).
as §1
Representative of the data shown in FIG. 2, mice (12 animals/treatment group) were dosed ip on Day 1 with 25 mg/kg doxorubicin or 25 mg/kg doxorubicin plus 0.0001, 0.001, 0.01, 0.1 or 1.0 mg/kg TK-115339 3 hours before, and after, the doxorubicin treatment. […] The plasma samples were analyzed for cTnI using a commercial ELISA test.

Structure (SMILES) | solubility in methanol ([1]; methanol) | solubility in water ([1]; water) | protection from doxorubicin-induced cardiac damage estimated by plasma cardiac troponin I (cTnI) (CD-1 mice [2]) | interference with tumor cell anti-growth activity (cytotoxicity) of doxorubicin, cell viability [3] | dose response of protection from doxorubicin-induced cardiac damage (plasma cardiac troponin) (CD-1 mice [4])
COc1cccc2c1C(=O)c1c(O)c3c(c(O)c1C2=O)C[C@@](O)(C(=O)CO)C[C@@H]3O[C@H]1C[C@H](N)[C@H](O)[C@H](C)O1 [Doxorubicin hydrochloride, 5,12-naphthacenedione,10-[(3-amino-2,3,6-trideoxy-α-L-Iyxo-hexopyranosyl)oxy]-7,8,9,10-tetrahydro-6,8,11-trihydroxy-8-(hydroxyacetyl)-1-methoxy-, hydrochloride, (8S-cis)-(9Cl)] | slightly soluble in methanol | soluble in water | – | – | –
CC(C)(C)[N+]([O-])=Cc1ccc(SSc2ccc(C=[N+]([O-])C(C)(C)C)cc2)cc1 [TK-115339, symmetrical disulfide conjugate of alpha-(4-sulfanylphenyl)-N-tert-butylnitrone] | – | – | mitigate one aspect of doxorubicin-induced toxicity, cardiac damage in CD-1 mice; also recorded: protects mice from doxorubicin-induced cardiac damage | does not interfere with the toxicity of doxorubicin; also recorded: does not interfere with the tumor cell anti-growth activity of doxorubicin | dose-response for the protection; also recorded: dose proportional
